The numbers were not newly measured in patent US20200353179A1, “Device for Deterring Abuse of Drugs” (EIGHTY EIGHT PHARMA, INC., priority 2017, published 2020), which cites them from elsewhere.

Counter-ions that a name gives are not always drawn. Like-named read-outs stand apart in the source and are kept apart here.

For data set [1], the system named is pharmacologic effects of intravenously administered heroin.
The conditions of data set [2]: 800 mg daily for up to one week.

Take `O=C1CC[C@@]2(O)[C@H]3Cc4ccc(O)c5c4[C@@]2(CCN3CC2CC2)[C@H]1O5` [naltrexone hydrochloride]: the “duration of blockade of pharmacologic effects of heroin” value in data set [1] (50 mg naltrexone hydrochloride, 25 mg intravenously administered heroin) is at most 24 hours. The values for the duration of blockade in data set [1] (doubling the dose of naltrexone hydrochloride) and in data set [1] (tripling the dose of naltrexone hydrochloride) were 48 h and “about 72 hours”, respectively. The “effect on the subjective effects of intravenously administered opioids” value in data set [1] (intravenously administered opioids) is on record as “markedly attenuates or completely blocks, reversibly”. In addition, the “toxicity in human subjects” value in data set [2] is recorded as “no evidence of toxicity”. Further, in the data set on animals (high doses, generally >1,000 mg/kg), the “signs produced by high doses” value was “salivation, depression/reduced activity, tremors, and convulsions”. Moreover, in the data set on animals (high-dose naltrexone administration), the “cause of mortalities in animals” value is “tonic-clonic convulsions and/or respiratory failure”.
